Data on 2 molecules can be found in publication PMC5329948, “Caspase vinyl sulfone small molecule inhibitors prevent axonal degeneration in human neurons and reverse cognitive impairment in Caspase-6-overexpressing mice” (Molecular Neurodegeneration, 2017).

In the data set the test system is HCT116 cells. Briefly: Cellular toxicity in HCT116 cells (phase contrast, MTT, LDH, sub-G1). In kind it is cell-based, human. The conditions noted are these: for cell morphology (phase contrast) / lactate dehydrogenase (LDH) release / sub-G1 levels of DNA: HCT116, 100 μM, 24 h; for mitochondrial reductive potential (MTT): HCT116, 20, 50 or 100 μM, 24 or 48 h. As for the experimental part: Immunofluorescence on human neuron cultures: Primary human neurons were pre-treated 2 h and serum-deprived in the presence of 100 μM NWL-117, 100 μM NWL-154, or 5 μM Z-VEID-fmk (Biomol, Plymouth meeting, PA, USA) for 24 h. Following treatment, human neurons were washed once with warm PBS, fixed for 20 min at room temperature with 4% paraformaldehyde (Sigma, Oakville, ON, CA)/4% sucrose (BioRad, Mississauga, ON, CA) for TubΔCasp6 or 2% formaldehyde (Thermo Fisher Scientific, Waltham, MA, USA)/0.2% glutaraldehyde (Sigma, Oakville, ON, CA) for pBudEGFP or pBudEGFP/APP^WT-transfected neurons, incubated in permeabilization buffer (0.1% Triton X-100, 0.1 sodium citrate) for 1 min on ice, washed with PBS, blocked for 20 min at room temperature with 10% goat serum (Sigma, Oakville, ON, CA), and incubated with primary antibodies diluted in 10% goat serum in PBS overnight at 4 °C in a humid chamber. The glass coverslips were washed with PBS, and incubated with goat anti-rabbit secondary antibody coupled to Alexa 488 (Molecular Probes, Eugene, OR, USA) or Cy3 (GE Healthcare Life Sciences, Baie D’Urfe, QC, CA) and Hoechst 33342 (ImmunoChemistry, Bloomington, MN, USA) at 1 μg/mL for 2 h at room temperature. The coverslips were washed with PBS and rinsed in Milli-Q water before mounting in fluoromount (Dako, Burlington, ON, CA). Images were acquired by fluorescence microscopy and quantified using the ImageJ software (NIH, Bethesda, MD, USA) for TubΔCasp6 and manually counted for transfected EGFP(+)-neurons. Time lapse-imaging by live fluorescence microscopy: Primary human neurons were transfected with gold beads coated with pBudEGFP or pBudEGFP/APP^WT using a Helios Gene gun (BioRad, Mississauga, ON, CA). Briefly, cells were pre-treated with 100 μM NWL inhibitors or 5 μM Z-VEID-fmk for 2 h. The media was removed and the neurons were shot at 100 psi. The media was quickly replaced with the inhibitors present. The plasmid was expressed for 16 h before setting up the fluorescence microscope (Nikon Eclipse Ti) to acquire 20 images per condition every hour for 72 h at 37 °C with 5% CO2. The images were analyzed by counting the total number of neurons (50–100 neurons per condition per independent experiment), and the number of beaded, swollen soma, and healthy neurons. In addition, the time at which cells beaded was noted. Phase contrast microscopy: HCT116 cells, plated at a density of 1×10^5 cells/well and human neurons, plated at a density of 6×10^6 cells/well on poly-L-lysine were treated with PBS, 100 μM NWL-117, 100 μM NWL-154, or 2 μM staurosporine (Biomol, Plymouth meeting, PA, USA) for 24 h. Images were acquired with the Nikon Eclipse Ti microscope and the NIS-Elements (Version 3.10) software.
MTT assay: HCT116 cells or primary human neurons were seeded in 96-well plates at a density of 1x10^4 and 1x10^5 cells per well, respectively. The next day, cells and neurons were treated with vehicle (PBS), or 20, 50, or 100 μM of NWL-117, NWL-154, or 2 μM staurosporine for 24 or 48 h. The media was replaced with […] MTT (3-(4,5-dimethylthiazol-2-yl)-2,5-diphenyltetrazolium bromide) (Sigma-Aldrich, Oakville, ON, CA) and the cells were incubated for 4 h at 37 °C in 5% CO2. The media was removed before dissolving the formazan crystals in 100 μL DMSO while shaking for 30 min. Once dissolved, the absorbance of each sample was measured at 560 nm and 670 nm using the Synergy H4 plate reader from BioTek (Winooski, VT, USA). LDH Assay: HCT116 cells were seeded in a 6-well plate at a density of 1×10^5 cells/well and treated the following day with 100 μM NWL-117 or −154 or equal volumes of vehicle (PBS) for 24 h. As a positive control, some cells were lysed for 2 h in 0.9% Triton X-100 (BioShop Canada Inc, Burlington, Ontario, CA). Media was collected and stored at −20 °C or assayed right away using the Cytotox 96 kit (Promega, Madison, WI, USA) following the manufacturer’s protocol. […]

As to `CCC(C)[C@H](NC(=O)[C@H](CCC(=O)O)NC(=O)[C@@H](NC(=O)OCc1ccccc1)C(C)C)C(=O)N[C@H](/C=C/S(C)(=O)=O)CC(=O)O` (some centres unmarked) [NWL-117], the “cell morphology (phase contrast)” value is “morphologically normal”, the “lactate dehydrogenase (LDH) release” value is given as “did not release lactase dehydrogenase”, the “sub-G1 levels of DNA” value was “nor did the cells show increased sub-G1 levels” and the “mitochondrial reductive potential (MTT)” value was “comparable to vehicle-treated cells”.
Taken in the same sequence, the figures for `CCC(C)[C@H](NC(=O)[C@H](CCC(=O)O)NC(=O)[C@@H](NC(=O)OCc1ccccc1)C(C)C)C(=O)N[C@H](/C=C(\Cl)S(C)(=O)=O)CC(=O)O` (some centres unmarked) [NWL-154] were “morphologically normal”, “did not release lactase dehydrogenase”, “nor did the cells show increased sub-G1 levels” and “comparable to vehicle-treated cells”.
